According to patent US20160176769A1, “PARTICULATE NITRIFICATION INHIBITOR SYSTEMS” (Ballance Agri-Nutrients Limited, priority 2008, published 2016):

Test system: nitrification in soil
Test: closed soil incubation experiment (nitrate and ammonium analyses of incubated soil)
Conditions: urea approx. 200 kg N/ha, Horotiu silt loam, 20°C
Procedure: A closed soil incubation experiment was established with the three compositions or products. The beat treated DCD was added at 10 kg/ha and the DCD/P fertiliser blends were added at 10 kg DCD/ha equivalent.
A control (urea only) and 2 DCD rates (10 kg DCD/ha and 1 kg DCD/ha) were included. Ten kg/ha is a standard rate of DCD application and matches the DCD/P fertiliser rate while 1 kg/ha matches the DCD rate applied in the heat treated product which was 10% W /W DCD. All treatments received urea solution at approximately 200 kg N/ha, and were replicated three times.
The soil was a Horotiu silt loam (Yellow Brown Loam) collected to a depth of approximately 100 mm from a site on the Ruakuta farm. The soil was sieved through a 4 mm sieve and stored at 4 ° C. overnight. Sub-samples were taken to determine the moisture content, soil water holding capacity and initial inorganic N concentration. To measure moisture content, subsamples were dried at 105° C. for 24 hours.
Stock solutions of urea, DCD and heated treated DCD were prepared. The compositions were diluted in water to aid dispersion through the soil and the more accurate addition of small amounts of material. The DCD/fertiliser blends however were weighed and applied dry as the material was largely insoluble.
Each replicated treatment was added to 150 g of dry soil equivalent (195 g field moist soil) in a resealable plastic bag. Distilled water was added as necessary to increase the soil moisture to around 60% of water holding capacity. The contents of each bag were mixed thoroughly, and the bags sealed to include as much air as possible to ensure an aerobic environment was maintained. The bags were placed in an incubator set at 20°C. for the duration of the experiment (14 days).
Soil sub-samples were taken from the bags at 2, 5, 9 and 14 days after incubation commenced for ammonium and nitrate analysis. The equivalent of approximately 5 g dry weight of soil was weighed into 150 mL flasks, 50 mL of 2 M potassium chloride (KCl) was added and the flasks shaken for one hour using end-over-end shakers (Mulvaney, 1996). The extractant was filtered (Whatman #42 filter paper) before being frozen prior to analysis for nitrate-N and ammoniumn-N using a Skalar segmented flow analyser. The data were statistically analysed using the ANOVA directive of GenStat (10th Edition) and L.S.D. (least significant difference) were calculated.

[1] = Day 2, applied at 10 kg/ha (blends 10 kg DCD/ha equivalent)
[2] = Day 5, applied at 10 kg/ha (blends 10 kg DCD/ha equivalent)
[3] = Day 9, applied at 10 kg/ha (blends 10 kg DCD/ha equivalent)
[4] = Day 14, applied at 10 kg/ha (blends 10 kg DCD/ha equivalent)

N#CN=C(N)N [DCD, dicyandiamide]
Average ammonium concentration in soil (Day 2, applied at 1 kg/ha): 149.7 μg NH4—N/g soil
Average nitrate concentration in soil (Day 2, applied at 1 kg/ha): 55.8 μg NO3—N/g soil
Average ammonium concentration in soil [1]: 159.7 μg NH4—N/g soil
Average nitrate concentration in soil [1]: 48.1 μg NO3—N/g soil
Average ammonium concentration in soil (Day 5, applied at 1 kg/ha): 81.6 μg NH4—N/g soil
Average nitrate concentration in soil (Day 5, applied at 1 kg/ha): 139.4 μg NO3—N/g soil
Average ammonium concentration in soil [2]: 106.2 μg NH4—N/g soil
Average nitrate concentration in soil [2]: 108.7 μg NO3—N/g soil
Average ammonium concentration in soil (Day 9, applied at 1 kg/ha): 23.2 μg NH4—N/g soil
Average nitrate concentration in soil (Day 9, applied at 1 kg/ha): 193.7 μg NO3—N/g soil
Average ammonium concentration in soil [3]: 63.1 μg NH4—N/g soil
Average nitrate concentration in soil [3]: 148.1 μg NO3—N/g soil
Average ammonium concentration in soil (Day 14, applied at 1 kg/ha): 1.3 μg NH4—N/g soil
Average nitrate concentration in soil (Day 14, applied at 1 kg/ha): 233.8 μg NO3—N/g soil
Average ammonium concentration in soil [4]: 22.1 μg NH4—N/g soil
Average nitrate concentration in soil [4]: 216.6 μg NO3—N/g soil
